# Laboratory results taken from patent publication US8178695B2, “4-(3-aminobenzoyl)-1,3-dimethylpyrazoles and their use as herbicides” (Bayer Cropscience AG, priority 2007, dated 2012).
# Read-outs that look alike come from different tables or passages of the source.
# Assays:
# Format in all cases: in vivo
# Abutilon theophrasti = test: Post-emergence herbicidal action against harmful plants; conditions: 20 g a.i./ha, scored after 3 to 4 weeks
# Protocol: (§1) Seeds of mono- and dicotyledonous harmful plants are placed in sandy loam in cardboard pots, covered with soil and grown in the greenhouse under good growth conditions. Two to three weeks after sowing, the test plants are treated at the three-leaf stage. The compounds according to the invention, which are formulated as wettable powders or as emulsion concentrates, are sprayed at an application rate of 600 to 800 l of water/ha (converted) in a dosage stated in tables 1 to 5 onto the surface of the green plant parts. After the test plants have been left to stand in the greenhouse for 3 to 4 weeks under optimum growth conditions, the action of the compounds according to the invention is scored in comparison to compounds disclosed in the prior art. As shown by the results of these comparison tables, the selected compounds according to the invention have better herbicidal activity against a broad spectrum of economically important mono- and dicotyledonous harmful plants than the compounds disclosed in the prior art.
# Setaria viridis [1] = test: as above; conditions: 504 h, scored after 3 to 4 weeks, read-out: Activity against harmful plants SETVI; for pest or weed control at 20 g/ha: 20 g a.i./ha; for pest or weed control at 80 g/ha: Comparative table 3, post-emergence, 80 g a.i./ha
# Protocol: as §1
# Setaria viridis [2] = test: Pre-emergence herbicidal action against harmful plants; conditions: Comparative table 7, pre-emergence, 20 g a.i./ha, visual scoring 3-4 weeks after treatment
# Text: (§2) Seeds or rhizome pieces of mono- and dicotyledonous harmful plants are placed in sandy loam in pots of a diameter of 9 to 13 cm and covered with soil. The herbicides, formulated as emulsifiable concentrates or dusts, are applied to the surface of the covering soil in the form of aqueous dispersions or suspensions or emulsions at an application rate of 300 to 800 l of water/ha (converted), at various dosages. For further cultivation of the plants, the pots are then kept in a greenhouse under optimum conditions. The visual scoring of the damage to the harmful plants is carried out 3-4 weeks after the treatment. As shown by the results of these comparative tables, the selected compounds according to the invention have better herbicidal activity against a broad spectrum of economically important mono- and dicotyledonous harmful plants than the compounds disclosed in the prior art.
# Viola tricolor [3] = test: as above; conditions: Comparative table 7, pre-emergence, 20 g a.i./ha, visual scoring 3-4 weeks after treatment
# Text: as §2
# Amaranthus retroflexus [4] = test: as above; conditions: visual scoring 3-4 weeks after treatment
# Text: as §2
# Veronica persica [5] = test: as above; conditions: Comparative table 7, pre-emergence, 20 g a.i./ha, visual scoring 3-4 weeks after treatment
# Text: as §2
# Matricaria inodora = test: as above; conditions: Comparative table 6, pre-emergence, 320 g a.i./ha, visual scoring 3-4 weeks after treatment
# Text: as §2
# ALOMY = test: as above; conditions: Comparative table 6, pre-emergence, 320 g a.i./ha, visual scoring 3-4 weeks after treatment
# Text: as §2
# Veronica persica [6] = test: Post-emergence herbicidal action against harmful plants; conditions: 20 g a.i./ha, scored after 3 to 4 weeks
# Protocol: as §1
# Cyperus serotinus [7] = test: Pre-emergence herbicidal action against harmful plants; conditions: Comparative table 5, pre-emergence, 320 g a.i./ha, visual scoring 3-4 weeks after treatment
# Text: as §2
# Lolium multiflorum = test: as above; conditions: Comparative table 5, pre-emergence, 320 g a.i./ha, visual scoring 3-4 weeks after treatment
# Text: as §2
# Stellaria media = test: as above; conditions: Comparative table 5, pre-emergence, 320 g a.i./ha, visual scoring 3-4 weeks after treatment
# Text: as §2
# Amaranthus retroflexus [8] = test: Post-emergence herbicidal action against harmful plants; conditions: 80 g a.i./ha, scored after 3 to 4 weeks
# Protocol: as §1
# Xanthium strumarium [9] = test: as above; conditions: Comparative table 2, post-emergence, 80 g a.i./ha, scored after 3 to 4 weeks
# Protocol: as §1
# Galium aparine [10] = test: as above; conditions: Comparative table 2, post-emergence, 80 g a.i./ha, scored after 3 to 4 weeks
# Protocol: as §1
# Xanthium strumarium [11] = test: Pre-emergence herbicidal action against harmful plants; conditions: Comparative table 9, pre-emergence, 320 g a.i./ha, visual scoring 3-4 weeks after treatment
# Text: as §2
# Galium aparine [12] = test: as above; conditions: Comparative table 9, pre-emergence, 320 g a.i./ha, visual scoring 3-4 weeks after treatment
# Text: as §2
# Cyperus serotinus [13] = test: Post-emergence herbicidal action against harmful plants; conditions: Comparative table 3, post-emergence, 80 g a.i./ha, scored after 3 to 4 weeks
# Protocol: as §1
# Viola tricolor [14] = test: as above; conditions: Comparative table 1, post-emergence, 20 g a.i./ha, scored after 3 to 4 weeks
# Protocol: as §1
# [15] = Comparative table 8, post-emergence
# [16] = Comparative table 7, pre-emergence, 20 g a.i./ha
# [17] = Comparative table 6, pre-emergence, 320 g a.i./ha
# [18] = Comparative table 4, post-emergence
# [19] = Comparative table 2, post-emergence
# [20] = Comparative table 3, post-emergence
# [21] = Comparative table 1, post-emergence
structure (smiles),measurement,setting,value
COCCCNc1c(S(C)(=O)=O)ccc(C(=O)c2c(C)nn(C)c2O)c1Cl,Activity against harmful plants ABUTH,Abutilon theophrasti; [15],70%
same,pest or weed control at 20 g/ha,Setaria viridis [1]; [15],70%
Cc1nn(C)c(O)c1C(=O)c1ccc(S(C)(=O)=O)c(N(C)CC2CC2)c1C,Activity against harmful plants SETVI,Setaria viridis [2],90%
same,Activity against harmful plants VIOTR,Viola tricolor [3],100%
same,Activity against harmful plants AMARE,Amaranthus retroflexus [4]; [16],100%
same,Activity against harmful plants VERPE,Veronica persica [5],90%
Cc1nn(C)c(O)c1C(=O)c1ccc(S(C)(=O)=O)c(NCC2CC2)c1C,Activity against harmful plants AMARE,Amaranthus retroflexus [4]; [17],100%
same,Activity against harmful plants MATIN,Matricaria inodora,80%
same,Activity against harmful plants ALOMY,ALOMY,60%
Cc1nn(C)c(O)c1C(=O)c1ccc(S(C)(=O)=O)c(NC(C)C)c1C,Activity against harmful plants ABUTH,Abutilon theophrasti; [18],90%
same,pest or weed control at 20 g/ha,Setaria viridis [1]; [18],90%
same,Activity against harmful plants VERPE,Veronica persica [6]; [18],70%
CCOCCNc1c(S(C)(=O)=O)ccc(C(=O)c2c(C)nn(C)c2O)c1Cl,Activity against harmful plants CYPES,Cyperus serotinus [7],60%
same,Activity against harmful plants LOLMU,Lolium multiflorum,0%
same,Activity against harmful plants STEME,Stellaria media,0%
CNc1c(S(C)(=O)=O)ccc(C(=O)c2c(C)nn(C)c2O)c1C,Activity against harmful plants AMARE,Amaranthus retroflexus [8]; [19],90%
same,Activity against harmful plants XANST,Xanthium strumarium [9],70%
same,Activity against harmful plants GALAP,Galium aparine [10],80%
CCn1ncc(C(=O)c2ccc(S(C)(=O)=O)c(N(C)C)c2C)c1O,Activity against harmful plants XANST,Xanthium strumarium [11],10%
same,Activity against harmful plants GALAP,Galium aparine [12],80%
Cc1nn(C)c(O)c1C(=O)c1ccc(S(C)(=O)=O)c(N(C)CC2CC2)c1Cl,Activity against harmful plants SETVI,Setaria viridis [2],0%
same,Activity against harmful plants VIOTR,Viola tricolor [3],0%
same,Activity against harmful plants AMARE,Amaranthus retroflexus [4]; [16],20%
same,Activity against harmful plants VERPE,Veronica persica [5],0%
Cc1nn(C)c(O)c1C(=O)c1ccc(S(C)(=O)=O)c(N(C)C)c1C,Activity against harmful plants XANST,Xanthium strumarium [11],100%
same,Activity against harmful plants GALAP,Galium aparine [12],90%
COCCCNc1c(S(C)(=O)=O)ccc(C(=O)c2c(C)nn(C)c2O)c1C,Activity against harmful plants ABUTH,Abutilon theophrasti; [15],90%
same,pest or weed control at 20 g/ha,Setaria viridis [1]; [15],100%
Cc1nn(C)c(O)c1C(=O)c1ccc(S(C)(=O)=O)c(NC(C)C)c1Cl,Activity against harmful plants ABUTH,Abutilon theophrasti; [18],80%
same,pest or weed control at 20 g/ha,Setaria viridis [1]; [18],80%
same,Activity against harmful plants VERPE,Veronica persica [6]; [18],40%
CCCNc1c(S(C)(=O)=O)ccc(C(=O)c2c(C)nn(C)c2O)c1Cl,pest or weed control at 80 g/ha,Setaria viridis [1],70%
same,Activity against harmful plants CYPES,Cyperus serotinus [13],50%
same,Activity against harmful plants AMARE,Amaranthus retroflexus [8]; [20],70%
CNc1c(S(C)(=O)=O)ccc(C(=O)c2c(C)nn(C)c2O)c1Cl,Activity against harmful plants AMARE,Amaranthus retroflexus [8]; [19],70%
same,Activity against harmful plants XANST,Xanthium strumarium [9],50%
same,Activity against harmful plants GALAP,Galium aparine [10],60%
Cc1nn(C)c(O)c1C(=O)c1ccc(S(C)(=O)=O)c(N)c1Cl,pest or weed control at 20 g/ha,Setaria viridis [1]; [21],40%
same,Activity against harmful plants VIOTR,Viola tricolor [14],70%
same,Activity against harmful plants VERPE,Veronica persica [6]; [21],70%
CCOCCNc1c(S(C)(=O)=O)ccc(C(=O)c2c(C)nn(C)c2O)c1C,Activity against harmful plants CYPES,Cyperus serotinus [7],80%
same,Activity against harmful plants LOLMU,Lolium multiflorum,50%
same,Activity against harmful plants STEME,Stellaria media,90%
Cc1nn(C)c(O)c1C(=O)c1ccc(S(C)(=O)=O)c(NCC2CC2)c1Cl,Activity against harmful plants AMARE,Amaranthus retroflexus [4]; [17],90%
same,Activity against harmful plants MATIN,Matricaria inodora,0%
same,Activity against harmful plants ALOMY,ALOMY,20%
Cc1nn(C)c(O)c1C(=O)c1ccc(S(C)(=O)=O)c(N)c1C,pest or weed control at 20 g/ha,Setaria viridis [1]; [21],80%
same,Activity against harmful plants VIOTR,Viola tricolor [14],80%
same,Activity against harmful plants VERPE,Veronica persica [6]; [21],90%
CCCNc1c(S(C)(=O)=O)ccc(C(=O)c2c(C)nn(C)c2O)c1C,pest or weed control at 80 g/ha,Setaria viridis [1],90%
same,Activity against harmful plants CYPES,Cyperus serotinus [13],80%
same,Activity against harmful plants AMARE,Amaranthus retroflexus [8]; [20],100%
